Assay results: US9809574B2, “Isoindoline or isoquinoline compounds, a process for their preparation and pharmaceutical compositions containing them” (LES LABORATOIRES SERVIER, priority 2013, dated 2017)

Key:
Bcl-2 protein = Bcl-2 protein (histag-Bcl-2, UniProtKB P10415) (Homo sapiens (Human), UniProt P10415); assay: Inhibition of Bcl-2 by the fluorescence polarisation technique; format: binding; conditions: fluorescence polarisation test; incubation for 2 hours; read-out: IC50 (nM) Bcl-2 FP
Source text: For partial inhibitors, the percentage fluorescence polarisation inhibition for a given concentration of the test compound is indicated.

[1] = test system: RS4; 11 leukaemia cell line; assay: In vitro cytotoxicity, Microculture Tetrazolium Assay (MTT); format: cell-based; conditions: Homo sapiens, 11 cells exposed for 48 hours
Protocol: The cytotoxicity studies were carried out on the RS4; 11 leukaemia cell line and on H146 small Cell Lung Carcinoma cell line. The cells are distributed onto microplates and exposed to the test compounds for 48 hours. The cell viability is then quantified by a colorimetric assay, the Microculture Tetrazolium Assay (Cancer Res., 1987, 47, 939-942).

Bcl-2 protein, sequence (P10415 whole entry): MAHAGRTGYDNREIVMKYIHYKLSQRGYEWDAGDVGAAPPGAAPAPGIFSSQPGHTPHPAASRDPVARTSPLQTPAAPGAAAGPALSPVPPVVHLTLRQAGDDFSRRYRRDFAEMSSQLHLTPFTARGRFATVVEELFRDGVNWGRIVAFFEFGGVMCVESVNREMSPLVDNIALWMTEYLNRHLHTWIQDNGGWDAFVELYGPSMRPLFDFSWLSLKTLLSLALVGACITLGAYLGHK

Row | SMILES | IC50 (Bcl-2 protein) [nM] | IC50 [1] [nM]
1 | CC(Cc1ccc(Cl)cc1)C(=O)N1Cc2cc(C(=O)N3Cc4ccccc4C[C@H]3C)c(-c3cc(C(=O)N(C)c4ccc(O)cc4)c4n3CCCC4)cc2C1 (stereo partly drawn) [Example 24, 3-(2-{2-[(4-Chlorophenyl)methyl]propanoyl}-6-[(3R)-3-methyl-1,2,3,4-tetrahydroisoquinoline-2-carbonyl]-2,3-dihydro-1H-isoindol-5-yl)-N-(4-hydroxyphenyl)-N-methyl-5,6,7,8-tetrahydroindolizine-1-carboxamide] | 19 | > 150
2 | Cc1ccc(CC(C)C(=O)N2Cc3cc(C(=O)N4Cc5ccccc5C[C@H]4C)c(-c4cc(C(=O)N(C)c5ccc(O)cc5)c5n4CCCC5)cc3C2)cc1 (stereo partly drawn) [Example 25, N-(4-Hydroxyphenyl)-N-methyl-3-{6-[(3R)-3-methyl-1,2,3,4-tetrahydroisoquinoline-2-carbonyl]-2-{2-[(4-methylphenyl)methyl]propanoyl}-2,3-dihydro-1H-isoindol-5-yl}-5,6,7,8-tetrahydroindolizine-1-carboxamide] | 29 | 144
3 | C[C@@H]1Cc2ccccc2CN1C(=O)c1cc2c(cc1-c1cc(C(=O)N(C)c3ccc(O)cc3)c3n1CCCC3)CN(C(=O)Cc1ccc(OC(F)(F)F)cc1)C2 [Example 26, N-(4-Hydroxyphenyl)-N-methyl-3-{6-[(3R)-3-methyl-1,2,3,4-tetrahydroisoquinoline-2-carbonyl]-2-{2-[4-(trifluoromethoxy)phenyl]acetyl}-2,3-dihydro-1H-isoindol-5-yl}-5,6,7,8-tetrahydroindolizine-1-carboxamide] | 30 | 86
4 | C[C@@H]1Cc2ccccc2CN1C(=O)c1cc2c(cc1-c1cc(C(=O)N(C)c3ccc(O)cc3)c3n1CCCC3)CN(CCC1CCCCC1)C2 [Example 29, 3-[2-(2-Cyclohexylethyl)-6-[(3R)-3-methyl-1,2,3,4-tetrahydroisoquinoline-2-carbonyl]-2,3-dihydro-1H-isoindol-5-yl]-N-(4-hydroxyphenyl)-N-methyl-5,6,7,8-tetrahydroindolizine-1-carboxamide] | 28 | > 150
5 | C[C@@H]1Cc2ccccc2CN1C(=O)c1cc2c(cc1-c1cc(C(=O)N(C)c3ccc(O)cc3)c3n1CCCC3)CN(CCCc1ccccc1)C2 [Example 30, N-(4-Hydroxyphenyl)-N-methyl-3-{6-[(3R)-3-methyl-1,2,3,4-tetrahydroisoquinoline-2-carbonyl]-2-(3-phenylpropyl)-2,3-dihydro-1H-isoindol-5-yl}-5,6,7,8-tetrahydroindolizine-1-carboxamide] | 16 | 119

More lines, in order of falling IC50 (Bcl-2 protein), values ahead:

Row | IC50 (Bcl-2 protein) [nM] | SMILES | IC50 [1] [nM]
6 | 47 | C[C@@H]1Cc2ccccc2CN1C(=O)c1cc2c(cc1-c1cc(C(=O)N(C)c3ccc(O)cc3)c3n1CCCC3)CN(C(=O)CCC1CCCCC1)C2 [Example 32, 3-[2-(3-Cyclohexylpropanoyl)-6-[(3R)-3-methyl-1,2,3,4-tetrahydroisoquinoline-2-carbonyl]-2,3-dihydro-1H-isoindol-5-yl]-N-(4-hydroxyphenyl)-N-methyl-5,6,7,8-tetrahydroindolizine-1-carboxamide] | 141
7 | 23 | C[C@@H]1Cc2ccccc2CN1C(=O)c1cc2c(cc1-c1cc(C(=O)N(C)c3ccc(O)cc3)c3n1CCCC3)CN(Cc1ccccn1)C2 [Example 28, N-(4-Hydroxyphenyl)-N-methyl-3-{6-[(3R)-3-methyl-1,2,3,4-tetrahydroisoquinoline-2-carbonyl]-2-(pyridin-2-ylmethyl)-2,3-dihydro-1H-isoindol-5-yl}-5,6,7,8-tetrahydroindolizine-1-carboxamide] | > 150
8 | 7.4 | C[C@@H]1Cc2ccccc2CN1C(=O)c1cc2c(cc1-c1cc(C(=O)N(C)c3ccc(O)cc3)c3n1CCCC3)CN(C(=O)Cc1csc(-c3cnccn3)n1)C2 [Example 31, N-(4-Hydroxyphenyl)-N-methyl-3-{6-[(3R)-3-methyl-1,2,3,4-tetrahydroisoquinoline-2-carbonyl]-2-{2-[2-(pyrazin-2-yl)-1,3-thiazol-4-yl]acetyl}-2,3-dihydro-1H-isoindol-5-yl}-5,6,7,8-tetrahydroindolizine-1-carboxamide] | 113
